Measured values taken from paper PMC7955127, “Preclinical small molecule WEHI-7326 overcomes drug resistance and elicits response in patient-derived xenograft models of human treatment-refractory tumors” (Cell Death & Disease, 2021).

Assay: Acute toxicity study, single intravenous dose (non-GLP)
Type: in vivo, Sprague-Dawley rats
Details: for Lung - focal red areas medial right lobe (2 mm diameter) (incidence at necropsy) / Lung - haemorrhagic area right caudal lobe (1mm diameter) (incidence at necropsy) / Multifocal red petechiae on all lung lobes (incidence at necropsy) / Pale yellow liver (minimal) (incidence at necropsy) / ALP / ALT / APTT / AST / Albumin / Albumin/Globulin / Bilirubin (Total) / Calcium / Chloride / Cholesterol / Creatinine / Globulin / Glucose / HCT / HGB / MCH / MCHC / MCV / PLT / PT / Phosphate / Potassium / Protein (Total) / RBC / Retc. / Sodium / Triglycerides / Urea / WBC / Smaller right teste (incidence at necropsy) / Testes noted to have a soft consistency (incidence at necropsy) / White streaks though one or both testes (incidence at necropsy): day 15; for ALP / ALT / APTT / AST / Albumin / Albumin/Globulin / Bilirubin (Total) / Calcium / Chloride / Cholesterol / Creatinine / Globulin / Glucose / HCT / HGB / MCH / MCHC / MCV / PLT / PT / Phosphate / Potassium / Protein (Total) / RBC / Retc. / Sodium / Triglycerides / Urea / WBC: mean ± SD
Protocol: This acute toxicity study included a satellite group for toxicokinetic assessment. The toxicity study was comprised of 12 male and 12 female rats, which were allocated into four groups of three males and three females. The toxicity of the test substance, WEHI-7326 dihydrochloride (referred to as WEHI-7326 from here), was tested at three dose concentrations of 5 mg/kg, 15 mg/kg and 30 mg/kg administered as a single dose via intravenous tail vein injection. The vehicle control, D-(+)-Glucose, was formulated at 5% w/v and administered per the above regime. On Study Day 15, all animals were terminated with blood collected for biochemistry, haematology and coagulation analysis before undergoing gross necropsy by a US board certified veterinary pathologist. The toxicokinetic satellite group comprised of 30 male rats which were allocated into four groups of three males in the vehicle control group and nine males in each of the three treatment groups. All treatment group animals were then allocated into three subgroups (A, B and C) and bled pre-dose, then 2min, 10min, 0.5h, 2h, 6h, 12h and 24h post-dose. All vehicle control group animals weren’t allocated to a specific subgroup but were bled at 10min and 12h post-dose. All TK animals were then terminated after the final blood collection. Dosing was suspended on Study Day 1 for both the Toxicity and Toxicokinetic Study animals following adverse reactions which lead to the early termination of two animals (one male treated with mid-dose WEHI-7326 from the Toxicity Study and one male treated with high-dose WEHI-7326 from the Toxicokinetic Study) approximately 5-10 minutes post-treatment. After consultation with the Sponsor, the following changes were made to the Study Design:
At the revised high dose of 20mg/kg, all male rats had to be terminated prematurely also due to reaching their body weight loss endpoint of >10% loss. […] Significant findings in clinical pathology outcomes were considered incidental and unrelated to test article treatment. The majority of macroscopic findings at necropsy were also considered to be incidental, however the findings of white streaks through the testes of male animals treated with WEHI-7326 may be related to treatment. Body weights were measured once prior to dose administration, then daily for the duration of the study and at termination. Clinical observations were performed on a daily basis.
The study followed test guideline OECD No. 420 (2001) “Acute Oral Toxicity - Fixed Dose Procedure” with the exception that the route of administration was intravenous (i.v.).

[1] = female rats, 5 mg/kg single i.v.
[2] = female rats, 15 mg/kg single i.v.
[3] = female rats, 20 mg/kg single i.v.
[4] = male rats, 15 mg/kg single i.v.
[5] = male rats, 20 mg/kg single i.v.

## COc1ccc(CNc2nc(NCc3ccc(CN)cc3)nc(NN3CC(=O)NC3=O)n2)cc1 [WEHI-7326]
[1]
  Body weight loss >10% (termination required) (incidence): 0/3
  Mild fur loss around both eyes from Study Day 10 to 15 (incidence): 0/3
  Mild impairment of gait and lack of response to stimuli up to 10 minutes post-dose (incidence): 0/3
  No remarkable observations (incidence): 3/3
  Lung - focal red areas medial right lobe (2 mm diameter) (incidence at necropsy): 0/3
  Lung - haemorrhagic area right caudal lobe (1mm diameter) (incidence at necropsy): 0/3
  Multifocal red petechiae on all lung lobes (incidence at necropsy): 1/3
  Pale yellow liver (minimal) (incidence at necropsy): 1/3
  ALP: 286 ± 65 U/L
  ALT: 54 ± 11 U/L
  APTT: 17.2 ± 1.9 s
  AST: 93 ± 13 U/L
  Albumin: 37.3 ± 3.1 g/L
  Albumin/Globulin: 1.6 ± 0.4 Ratio
  Bilirubin (Total): 0.8 ± 0.1 µM
  Calcium: 2.59 ± 0.07 mM
  Chloride: 102.4 ± 0.5 mM
  Cholesterol: 1.98 ± 0.21 mM
  Creatinine: 30 ± 3 µM
  Globulin: 23.7 ± 3.4 g/L
  Glucose: 7.57 ± 0.07 mM
  HCT: 0.45 ± 0.01 L/L
  HGB: 137.3 ± 4.9 g/L
  MCH: 18.87 ± 0.45 pg
  MCHC: 303.0 ± 4.4 g/L
  MCV: 62.3 ± 0.9 fL
  PLT: 1080.0 ± 206.7 10^9/L
  PT: 21.9 ± 1.0 s
  Phosphate: 1.75 ± 0.14 mM
  Potassium: 5.30 ± 0.14 mM
  Protein (Total): 61.0 ± 0.4 g/L
  RBC: 7.27 ± 0.14 10^12/L
  Retc.: 3.76 ± 0.62%
  Sodium: 138 ± 1 mM
  Triglycerides: 0.86 ± 0.29 mM
  Urea: 6.56 ± 1.18 mM
  WBC: 11.28 ± 4.18 10^9/L
[2]
  Body weight loss >10% (termination required) (incidence): 2/3
  Mild fur loss around both eyes from Study Day 10 to 15 (incidence): 0/3
  Mild impairment of gait and lack of response to stimuli up to 10 minutes post-dose (incidence): 0/3
  No remarkable observations (incidence): 1/3
  Lung - focal red areas medial right lobe (2 mm diameter) (incidence at necropsy): 0/1
  Lung - haemorrhagic area right caudal lobe (1mm diameter) (incidence at necropsy): 0/1
  Multifocal red petechiae on all lung lobes (incidence at necropsy): 0/1
  Pale yellow liver (minimal) (incidence at necropsy): 0/1
  ALP: 218 ± 0 U/L
  ALT: 55 ± 0 U/L
  APTT: 18.6 ± 0.0 s
  AST: 73 ± 0 U/L
  Albumin: 37.7 ± 0 g/L
  Albumin/Globulin: 1.3 ± 0 Ratio
  Bilirubin (Total): 1.0 ± 0 µM
  Calcium: 2.48 ± 0 mM
  Chloride: 102.5 ± 0 mM
  Cholesterol: 1.59 ± 0 mM
  Creatinine: 27 ± 0 µM
  Globulin: 28.8 ± 0 g/L
  Glucose: 7.31 ± 0 mM
  HCT: 0.45 ± 0.00 L/L
  HGB: 136.0 ± 0.0 g/L
  MCH: 18.70 ± 0.00 pg
  MCHC: 306.0 ± 0.0 g/L
  MCV: 60.90 ± 0.0 fL
  PLT: 970.0 ± 0.0 10^9/L
  PT: 19.9 ± 0.0 s
  Phosphate: 1.53 ± 0 mM
  Potassium: 4.53 ± 0 mM
  Protein (Total): 66.5 ± 0 g/L
  RBC: 7.31 ± 0.00 10^12/L
  Retc.: 4.52 ± 0.00%
  Sodium: 140 ± 0 mM
  Triglycerides: 0.76 ± 0 mM
  Urea: 6.91 ± 0 mM
  WBC: 10.28 ± 0.00 10^9/L
[3]
  Body weight loss >10% (termination required) (incidence): 0/3
  Mild fur loss around both eyes from Study Day 10 to 15 (incidence): 1/3
  Mild impairment of gait and lack of response to stimuli up to 10 minutes post-dose (incidence): 1/3
  No remarkable observations (incidence): 2/3
  Lung - focal red areas medial right lobe (2 mm diameter) (incidence at necropsy): 1/3
  Lung - haemorrhagic area right caudal lobe (1mm diameter) (incidence at necropsy): 1/3
  Multifocal red petechiae on all lung lobes (incidence at necropsy): 0/3
  Pale yellow liver (minimal) (incidence at necropsy): 0/3
  ALP: 171 ± 38 U/L
  ALT: 70 ± 9 U/L
  APTT: 17.3 ± 1.0 s
  AST: 93 ± 14 U/L
  Albumin: 36.5 ± 1.1 g/L
  Albumin/Globulin: 1.3 ± 0.1 Ratio
  Bilirubin (Total): 1.2 ± 0.3 µM
  Calcium: 2.71 ± 0.12 mM
  Chloride: 100.5 ± 0.7 mM
  Cholesterol: 2.16 ± 0.31 mM
  Creatinine: 38 ± 5 µM
  Globulin: 27.9 ± 1.2 g/L
  Glucose: 7.29 ± 0.68 mM
  HCT: 0.46 ± 0.01 L/L
  HGB: 134.3 ± 3.2 g/L
  MCH: 18.53 ± 0.84 pg
  MCHC: 290.7 ± 1.5 g/L
  MCV: 63.7 ± 2.5 fL
  PLT: 957.0 ± 63.5 10^9/L
  PT: 21.8 ± 0.8 s
  Phosphate: 1.85 ± 0.15 mM
  Potassium: 4.72 ± 0.20 mM
  Protein (Total): 64.3 ± 1.2 g/L
  RBC: 7.27 ± 0.15 10^12/L
  Retc.: 4.75 ± 1.82%
  Sodium: 139 ± 1 mM
  Triglycerides: 0.96 ± 0.50 mM
  Urea: 6.37 ± 0.39 mM
  WBC: 7.85 ± 1.07 10^9/L
Male rats, 5 mg/kg single i.v.
  Body weight loss >10% (termination required) (incidence): 0/3
  Discharge from nose on study day 2 (incidence): 0/3
  Hunched posture with half shut eyes on Study Day 3 (incidence): 0/3
  Labored breathing, severely affected gait and lack of response to stimuli post-dose (termination required) (incidence): 0/3
  Mild impairment of gait and lack of response to stimuli postdose, resolved 2 hours post treatment (incidence): 0/3
  No remarkable observations (incidence): 3/3
  Red stained right eye on study day 2 and 3 (incidence): 0/3
  Multifocal red petechiae on all lung lobes (incidence at necropsy): 0/3
  Smaller right teste (incidence at necropsy): 1/3
  Testes noted to have a soft consistency (incidence at necropsy): 0/3
  White streaks though one or both testes (incidence at necropsy): 3/3
  ALP: 528 ± 112 U/L
  ALT: 66 ± 17 U/L
  APTT: 16.8 ± 1.3 s
  AST: 114 ± 16 U/L
  Albumin: 36.6 ± 4.1 g/L
  Albumin/Globulin: 1.4 ± 0.2 Ratio
  Bilirubin (Total): 0.4 ± 0.1 µM
  Calcium: 2.67 ± 0.12 mM
  Chloride: 102.9 ± 5.3 mM
  Cholesterol: 1.81 ± 0.18 mM
  Creatinine: 25 ± 5 µM
  Globulin: 25.3 ± 1.6 g/L
  Glucose: 7.70 ± 0.82 mM
  HCT: 0.52 ± 0.01 L/L
  HGB: 151.7 ± 3.1 g/L
  MCH: 19.70 ± 0.85 pg
  MCHC: 294.0 ± 5.0 g/L
  MCV: 67.2 ± 3.5 fL
  PLT: 1025.0 ± 167.5 10^9/L
  PT: 19.5 ± 0.3 s
  Phosphate: 2.07 ± 0.24 mM
  Potassium: 5.23 ± 0.33 mM
  Protein (Total): 61.9 ± 5.8 g/L
  RBC: 7.71 ± 0.45 10^12/L
  Retc.: 4.57 ± 1.00%
  Sodium: 143 ± 10 mM
  Triglycerides: 1.65 ± 0.18 mM
  Urea: 6.11 ± 0.96 mM
  WBC: 14.83 ± 1.08 10^9/L
[4]
  Body weight loss >10% (termination required) (incidence): 2/4
  Discharge from nose on study day 2 (incidence): 0/4
  Hunched posture with half shut eyes on Study Day 3 (incidence): 0/4
  Labored breathing, severely affected gait and lack of response to stimuli post-dose (termination required) (incidence): 1/4
  Mild impairment of gait and lack of response to stimuli postdose, resolved 2 hours post treatment (incidence): 0/4
  No remarkable observations (incidence): 1/4
  Red stained right eye on study day 2 and 3 (incidence): 1/4
  Multifocal red petechiae on all lung lobes (incidence at necropsy): 0/1
  Smaller right teste (incidence at necropsy): 0/1
  Testes noted to have a soft consistency (incidence at necropsy): 1/1
  White streaks though one or both testes (incidence at necropsy): 1/1
  ALP: 306 ± 0 U/L
  ALT: 61 ± 0 U/L
  APTT: 20.2 ± 0.0 s
  AST: 108 ± 0 U/L
  Albumin: 32.3 ± 0 g/L
  Albumin/Globulin: 1.3 ± 0 Ratio
  Bilirubin (Total): 0.9 ± 0 µM
  Calcium: 2.50 ± 0 mM
  Chloride: 100.4 ± 0 mM
  Cholesterol: 1.65 ± 0 mM
  Creatinine: 23 ± 0 µM
  Globulin: 25.8 ± 0 g/L
  Glucose: 7.13 ± 0 mM
  HCT: 0.46 ± 0.00 L/L
  HGB: 138.0 ± 0.0 g/L
  MCH: 18.00 ± 0.00 pg
  MCHC: 297.0 ± 0.0 g/L
  MCV: 60.40 ± 0.0 fL
  PLT: 1075 ± 0.0 10^9/L
  PT: 18.4 ± 0.0 s
  Phosphate: 2.07 ± 0 mM
  Potassium: 4.78 ± 0 mM
  Protein (Total): 58.1 ± 0 g/L
  RBC: 7.68 ± 0.00 10^12/L
  Retc.: 2.70 ± 0.00%
  Sodium: 138 ± 0 mM
  Triglycerides: 0.97 ± 0 mM
  Urea: 4.02 ± 0 mM
  WBC: 10.89 ± 0.00 10^9/L
[5]
  Body weight loss >10% (termination required) (incidence): 3/3
  Discharge from nose on study day 2 (incidence): 3/3
  Hunched posture with half shut eyes on Study Day 3 (incidence): 3/3
  Labored breathing, severely affected gait and lack of response to stimuli post-dose (termination required) (incidence): 0/3
  Mild impairment of gait and lack of response to stimuli postdose, resolved 2 hours post treatment (incidence): 3/3
  No remarkable observations (incidence): 0/3
  Red stained right eye on study day 2 and 3 (incidence): 0/3
  Multifocal red petechiae on all lung lobes (incidence at necropsy): 0/0
  Smaller right teste (incidence at necropsy): 0/0
  Testes noted to have a soft consistency (incidence at necropsy): 0/0
  White streaks though one or both testes (incidence at necropsy): 0/0
